24 molecules from patent US20240383904A1, “HETEROCYCLIC COMPOUNDS” (Hoffmann-La Roche Inc., priority 2021, published 2024) can be followed below.

Each structure is given as a SMILES string.

The target in the test is T1, MAGL (Homo sapiens, UniProt Q99685).
T1 sequence (Q99685 1-303): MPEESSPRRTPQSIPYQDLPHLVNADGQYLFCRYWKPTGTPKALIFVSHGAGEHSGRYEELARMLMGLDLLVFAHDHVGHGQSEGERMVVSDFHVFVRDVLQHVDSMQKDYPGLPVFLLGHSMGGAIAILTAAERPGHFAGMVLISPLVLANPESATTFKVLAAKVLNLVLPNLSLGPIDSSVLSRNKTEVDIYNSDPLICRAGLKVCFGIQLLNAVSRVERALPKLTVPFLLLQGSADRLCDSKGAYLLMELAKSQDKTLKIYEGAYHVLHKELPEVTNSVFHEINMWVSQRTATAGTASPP
Kind of test: 2-AG assay: MAGL inhibitory activity by hydrolysis of 2-arachidonoylglycerol to arachidonic acid, followed by mass spectrometry. The class given is biochemical. Conditions: 15 min preincubation, 30 min reaction at RT, 8 μM 2-arachidonoylglycerol.
One may read the IC50 as the concentration that gives 50% inhibition. A high value points to lower potency. On to `O=C1NC2(CO1)CN(C(=O)N1CC3(CCC(Cc4ccc(C(F)(F)F)nc4)C3)C1)C2` (stereo not drawn) [Example 110, 2-[6-[[6-(trifluoromethyl)-3-pyridyl]methyl]-2-azaspiro[3.4]octane-2-carbonyl]-7-oxa-2,5-diazaspiro[3.4]octan-6-one], for which the half-maximal inhibitory concentration (IC50) stood at 0.24 nM. Next, `O=C1NC2(CO1)CN(C(=O)N1CC3(CC[C@H](Cc4cnc(C(F)(F)F)cn4)C3)C1)C2` [Example 111, 2-[(6S)-6-[[5-(trifluoromethyl)pyrazin-2-yl]methyl]-2-azaspiro[3.4]octane-2-carbonyl]-7-oxa-2,5-diazaspiro[3.4]octan-6-one]: 0.31 nM; `O=C1NC2(CO1)CN(C(=O)N1CC3(CCC(Cc4cnc(C(F)(F)F)cn4)CC3)C1)C2` [Example 112, 2-[7-[[5-(trifluoromethyl)pyrazin-2-yl]methyl]-2-azaspiro[3.5]nonane-2-carbonyl]-7-oxa-2,5-diazaspiro[3.4]octan-6-one]: 0.57 nM; `O=C1NC2(CO1)CN(C(=O)N1CC3(CC[C@@H](Cc4cnc(C(F)(F)F)cn4)C3)C1)C2` [Example 113, 2-[(6R)-6-[[5-(trifluoromethyl)pyrazin-2-yl]methyl]-2-azaspiro[3.4]octane-2-carbonyl]-7-oxa-2,5-diazaspiro[3.4]octan-6-one]: 0.62 nM.

`O=C1NC2(CO1)CN(C(=O)N1CC3(CCC(NS(=O)(=O)c4cccc(OC(F)(F)F)c4)CC3)C1)C2` [Example 114, N-[2-(6-keto-7-oxa-2,5-diazaspiro[3.4]octane-2-carbonyl)-2-azaspiro[3.5]nonan-7-yl]-3-(trifluoromethoxy)benzene-sulfonamide]: the IC50 was found to be 0.63 nM. For `O=C1NC2(CO1)CN(C(=O)N1CC3(CC(c4ccc(F)cc4)C3)C1)C2` [Example 115, 2-[6-(4-fluorophenyl)-2-azaspiro[3.3]heptane-2-carbonyl]-7-oxa-2,5-diazaspiro[3.4]octan-6-one], the IC50 is 1.02 nM. Next, `O=C1CCC2(CN(C(=O)N3CC4(CCC(NS(=O)(=O)c5cccc(OC(F)(F)F)c5)CC4)C3)C2)N1` [Example 116, N-[2-(6-keto-2,5-diazaspiro[3.4]octane-2-carbonyl)-2-azaspiro[3.5]nonan-7-yl]-3-(trifluoromethoxy)benzene-sulfonamide]: 1.73 nM; `CS(=O)(=O)c1cc(C(F)(F)F)ccc1C1CC2(C1)CN(C(=O)N1CC3(COC(=O)N3)C1)C2` [Example 117]: 1.96 nM. The same measure for `CS(=O)(=O)c1ccc(O[C@H]2CCC3(C2)CN(C(=O)N2CC4(COC(=O)N4)C2)C3)cc1C(F)(F)F` [Example 118, 2-[(6S)-6-[4-mesy1-3-(trifluoromethyl)phenoxy]-2-azaspiro[3.4]octane-2-carbonyl]-7-oxa-2,5-diazaspiro[3.4]octan-6-one]: 2.49 nM; for `O=C1NC2(CO1)CN(C(=O)N1CC3(CC(NCC4(C(F)(F)F)CC4)C3)C1)C2` [Example 119, 2-[6-[[1-(trifluoromethyl)cyclopro-pyl]methylamino]-2-azaspiro[3.3]heptane-2-carbonyl]-7-oxa-2,5-diazaspiro[3.4]octan-6-one]: 2.93 nM; for `O=C1CCC2(CN(C(=O)N3CC4(CCC(Cc5ccc(Cl)cn5)CC4)C3)C2)N1` [Example 120, 2-[7-[(5-chloro-2-pyridyl)methyl]-2-azaspiro[3.5]nonane-2-carbonyl]-2,5-diazaspiro[3.4]octan-6-one]: 2.95 nM. The same measure for `O=C1CCC2(CN(C(=O)N3CC4(CCC(Cc5ccc(OC(F)F)nc5)CC4)C3)C2)N1` [Example 121, 2-[7-[[6-(difluoromethoxy)-3-pyridyl]methyl]-2-azaspiro[3.5]nonane-2-carbonyl]-2,5-diazaspiro[3.4]octan-6-one]: 4.19 nM; for `CS(=O)(=O)c1ccc(Cl)cc1OC1CCC2(CC1)CN(C(=O)N1CC3(COC(=O)N3)C1)C2` [Example 122, 2-[7-(5-chloro-2-mesyl-phenoxy)-2-azaspiro[3.5]nonane-2-carobnyl]-7-oxa-2,5-diazaspiro[3.4]octan-6-one]: 4.33 nM.

In turn, `O=C1NC2(CO1)CN(C(=O)N1CC3(CCC(Oc4ncc(C(F)(F)F)cn4)CC3)C1)C2` [Example 123, 2-[7-[5-(trifluoromethyl)pyrimi-din-2-yl]oxy-2-azaspiro[3.5]nonane-2-carbonyl]-7-oxa-2,5-diazaspiro[3.4]octan-6-one] returned an IC50 of 4.43 nM. Next, `CS(=O)(=O)c1ccc(C2CC3(C2)CN(C(=O)N2CC4(COC(=O)N4)C2)C3)cc1` [Example 124, 2-[6-(4-mesylphenyl)-2-azaspiro[3.3]heptane-2-carbonyl]-7-oxa-2,5-diazaspiro[3.4]octan-6-one]: 4.54 nM.

In turn, `O=C1CCC2(CN(C(=O)N3CC4(CCC(Cc5ncc(F)cc5F)CC4)C3)C2)N1` [Example 125, 2-[7-[(3,5-difluoro-2-pyridyl)methyl]-2-azaspiro[3.5]nonane-2-carbonyl]-2,5-diazaspiro[3.4]octan-6-one] came in with an IC50 of 5.81 nM. This IC50 and that of the molecule before are within 1.5-fold of each other.

With `O=C1NC2(CO1)CN(C(=O)N1CC3(CC(c4cncc(F)c4)C3)C1)C2` [Example 126, 2-[6-(5-fluoro-3-pyridyl)-2-azaspiro[3.3]heptane-2-carbonyl]-7-oxa-2,5-diazaspiro[3.4]octan-6-one], inhibition was half-maximal at 21.3 nM (IC50). For the molecule `O=C1NCC2(CN(C(=O)N3CC4(CCC(OCC5(C(F)(F)F)CC5)CC4)C3)C2)N1` [Example 127, 2-[7-[[1-(trifluoromethyl)cyclopro-pyl]methoxy]-2-azaspiro[3.5]nonane-2-carbonyl]-2,5,7-triazaspiro[3.4]octan-6-one], the midpoint of inhibition, the IC50, lay at 30.8 nM. The same measure for `O=C1NCC2(CN(C(=O)N3CC4(CCC(Cc5ccc(OC(F)F)nc5)CC4)C3)C2)N1` [Example 128, 2-[7-[[6-(difluoromethoxy)-3-pyridyl]methyl]-2-azaspiro[3.5]nonane-2-carbonyl]-2,5,7-triazaspiro[3.4]octan-6-one]: 51.9 nM; for `O=C1CCC2(CN(C(=O)N3CC4(CCC(Nc5cnc(C(F)(F)F)cn5)CC4)C3)C2)N1` [Example 129, 2-[7-[[5-(trifluoromethyl)pyrazin-2-yl]amino]-2-azaspiro[3.5]nonane-2-carbonyl]-2,5-diazaspiro[3.4]octan-6-one]: 66.7 nM.

Molecule `O=C1NC2(CCO1)CN(C(=O)N1CC3(CCC(OCC4(C(F)(F)F)CC4)CC3)C1)C2` [Example 130, 2-[7-[[1-(trifluoromethyl)cyclopro-pyl]methoxy]-2-azaspiro[3.5]nonane-2-carbonyl]-7-oxa-2,5-diazaspiro[3.5]nonan-6-one] showed an IC50 of 186 nM. The same measure for `O=C1CCC2(CN(C(=O)N3CC4(CC(n5cnc(C6CC6)n5)C4)C3)C2)N1` [Example 131, 2-[6-(3-cyclopropyl-1,2,4-triazol-1-yl)-2-azaspiro[3.3]heptane-2-carbonyl]-2,5-diazaspiro[3.4]octan-6-one]: 209 nM; for `O=C1CCC2(CN(C(=O)N3CC4(CCN(Cc5ccc(C(F)(F)F)cc5F)CC4)C3)C2)N1` [Example 132]: 0.79 nM; for `O=C1COCC2(CN(C(=O)N3CC4(CCC(Cc5ccc(OC(F)F)nc5)CC4)C3)C2)N1` [Example 133, 2-[7-[[6-(difluoromethoxy)-3-pyridyl]methyl]-2-azaspiro[3.5]nonane-2-carbonyl]-8-oxa-2,5-diazaspiro[3.5]nonan-6-one]: 13.1 nM.
